Source: PubChem BioAssay (NCI)
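96-well plates; 48 h exposure; 5 concentrations. Endpoints by linear interpolation between flanking doses. Not reached: highest tested concentration assigned. GI50: concentration for 50% inhibition of growth. TGI: concentration producing complete growth inhibition.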

Key:
Assay in all cases: DTP human tumour cell line panel, 48 h
SNB-19 CNS = test system: SNB-19 CNS
SF-295 CNS = test system: SF-295 CNS
HCT-15 colon = test system: HCT-15 colon
HCT-116 colon = test system: HCT-116 colon
MALME-3M melanoma = test system: MALME-3M melanoma
OVCAR-3 ovarian = test system: OVCAR-3 ovarian
SF-539 CNS = test system: SF-539 CNS
MOLT-4 leukemia = test system: MOLT-4 leukemia
LOX IMVI melanoma = test system: LOX IMVI melanoma
IGROV1 ovarian = test system: IGROV1 ovarian
SF-268 CNS = test system: SF-268 CNS
UO-31 renal = test system: UO-31 renal
SK-OV-3 ovarian = test system: SK-OV-3 ovarian
HT29 colon = test system: HT29 colon
NCI-H460 lung = test system: NCI-H460 lung
U251 CNS = test system: U251 CNS
UACC-257 melanoma = test system: UACC-257 melanoma
DU-145 prostate = test system: DU-145 prostate
HL-60(TB) leukemia = test system: HL-60(TB) leukemia
SK-MEL-28 melanoma = test system: SK-MEL-28 melanoma
ACHN renal = test system: ACHN renal
HOP-62 NSCLC = test system: HOP-62 NSCLC
A549 NSCLC = test system: A549 NSCLC
TK-10 renal = test system: TK-10 renal
NCI-H23 lung = test system: NCI-H23 lung
RPMI-8226 leukemia = test system: RPMI-8226 leukemia
MDA-MB-435 = test system: MDA-MB-435
SK-MEL-5 melanoma = test system: SK-MEL-5 melanoma
A498 renal = test system: A498 renal
K-562 leukemia = test system: K-562 leukemia
SNB-75 CNS = test system: SNB-75 CNS
NCI-H226 lung = test system: NCI-H226 lung
SN12C renal = test system: SN12C renal
SK-MEL-2 melanoma = test system: SK-MEL-2 melanoma
HCC-2998 colon = test system: HCC-2998 colon
MCF7 breast = test system: MCF7 breast
SR leukemia = test system: SR leukemia
OVCAR-5 ovarian = test system: OVCAR-5 ovarian
786-0 renal = test system: 786-0 renal
BT-549 breast = test system: BT-549 breast
NCI/ADR-RES ovarian = test system: NCI/ADR-RES ovarian
COLO 205 colon = test system: COLO 205 colon
CAKI-1 renal = test system: CAKI-1 renal
SW-620 colon = test system: SW-620 colon
NCI-H522 lung = test system: NCI-H522 lung
PC-3 prostate = test system: PC-3 prostate
EKVX NSCLC = test system: EKVX NSCLC
HS 578T breast = test system: HS 578T breast
T-47D breast = test system: T-47D breast
CCRF-CEM leukemia = test system: CCRF-CEM leukemia
HOP-92 NSCLC = test system: HOP-92 NSCLC
OVCAR-4 ovarian = test system: OVCAR-4 ovarian
MDA-MB-231 breast = test system: MDA-MB-231 breast
UACC-62 melanoma = test system: UACC-62 melanoma
M14 melanoma = test system: M14 melanoma
KM12 colon = test system: KM12 colon
OVCAR-8 ovarian = test system: OVCAR-8 ovarian
RXF 393 renal = test system: RXF 393 renal

CCOC(=O)c1ccc2c(c1)c1c(C)c3ccncc3c(C)c1n2C
GI50 (SNB-19 CNS): 441 nM
TGI (SNB-19 CNS): 2320 nM
GI50 (SF-295 CNS): 516 nM
TGI (SF-295 CNS): 4630 nM
GI50 (HCT-15 colon): 381 nM
TGI (HCT-15 colon): 1650 nM
GI50 (HCT-116 colon): 287 nM
TGI (HCT-116 colon): 1380 nM
GI50 (MALME-3M melanoma): 375 nM
TGI (MALME-3M melanoma): 1680 nM
GI50 (OVCAR-3 ovarian): 692 nM
TGI (OVCAR-3 ovarian): 2620 nM
GI50 (SF-539 CNS): 467 nM
TGI (SF-539 CNS): 1920 nM
GI50 (MOLT-4 leukemia): 393 nM
TGI (MOLT-4 leukemia): 3190 nM
GI50 (LOX IMVI melanoma): 349 nM
TGI (LOX IMVI melanoma): 1620 nM
GI50 (IGROV1 ovarian): 211 nM
TGI (IGROV1 ovarian): 1460 nM
GI50 (SF-268 CNS): 846 nM
TGI (SF-268 CNS): 3480 nM
GI50 (UO-31 renal): 165 nM
TGI (UO-31 renal): 1400 nM
GI50 (SK-OV-3 ovarian): 721 nM
TGI (SK-OV-3 ovarian): 2990 nM
GI50 (HT29 colon): 362 nM
TGI (HT29 colon): 1780 nM
GI50 (NCI-H460 lung): 680 nM
TGI (NCI-H460 lung): 3460 nM
GI50 (U251 CNS): 468 nM
TGI (U251 CNS): 1980 nM
GI50 (UACC-257 melanoma): 472 nM
TGI (UACC-257 melanoma): 2600 nM
GI50 (DU-145 prostate): 546 nM
TGI (DU-145 prostate): 2330 nM
GI50 (HL-60(TB) leukemia): 1160 nM
TGI (HL-60(TB) leukemia): 6080 nM
GI50 (SK-MEL-28 melanoma): 539 nM
TGI (SK-MEL-28 melanoma): 1900 nM
GI50 (ACHN renal): 265 nM
TGI (ACHN renal): 1320 nM
GI50 (HOP-62 NSCLC): 408 nM
TGI (HOP-62 NSCLC): 2160 nM
GI50 (A549 NSCLC): 382 nM
TGI (A549 NSCLC): 1880 nM
GI50 (TK-10 renal): 1150 nM
TGI (TK-10 renal): 3050 nM
GI50 (NCI-H23 lung): 376 nM
TGI (NCI-H23 lung): 1980 nM
GI50 (RPMI-8226 leukemia): 440 nM
TGI (RPMI-8226 leukemia): 2440 nM
GI50 (MDA-MB-435): 649 nM
TGI (MDA-MB-435): 1960 nM
GI50 (SK-MEL-5 melanoma): 384 nM
TGI (SK-MEL-5 melanoma): 1510 nM
GI50 (A498 renal): 664 nM
TGI (A498 renal): 2050 nM
GI50 (K-562 leukemia): 413 nM
TGI (K-562 leukemia): 2530 nM
GI50 (SNB-75 CNS): 380 nM
TGI (SNB-75 CNS): 1950 nM
GI50 (NCI-H226 lung): 260 nM
TGI (NCI-H226 lung): 1450 nM
GI50 (SN12C renal): 457 nM
TGI (SN12C renal): 2310 nM
GI50 (SK-MEL-2 melanoma): 897 nM
TGI (SK-MEL-2 melanoma): 2580 nM
GI50 (HCC-2998 colon): 1090 nM
TGI (HCC-2998 colon): 2950 nM
GI50 (MCF7 breast): 346 nM
TGI (MCF7 breast): 1750 nM
GI50 (SR leukemia): 269 nM
TGI (SR leukemia): 3950 nM
GI50 (OVCAR-5 ovarian): 796 nM
TGI (OVCAR-5 ovarian): 2840 nM
GI50 (786-0 renal): 642 nM
TGI (786-0 renal): 2030 nM
GI50 (BT-549 breast): 1270 nM
TGI (BT-549 breast): 3700 nM
GI50 (NCI/ADR-RES ovarian): 470 nM
TGI (NCI/ADR-RES ovarian): 2900 nM
GI50 (COLO 205 colon): 350 nM
TGI (COLO 205 colon): 1820 nM
GI50 (CAKI-1 renal): 287 nM
TGI (CAKI-1 renal): 1490 nM
GI50 (SW-620 colon): 322 nM
TGI (SW-620 colon): 1800 nM
GI50 (NCI-H522 lung): 564 nM
TGI (NCI-H522 lung): 2550 nM
GI50 (PC-3 prostate): 486 nM
TGI (PC-3 prostate): 2150 nM
GI50 (EKVX NSCLC): 384 nM
TGI (EKVX NSCLC): 2370 nM
GI50 (HS 578T breast): 543 nM
TGI (HS 578T breast): 3240 nM
GI50 (T-47D breast): 855 nM
TGI (T-47D breast): 3500 nM
GI50 (CCRF-CEM leukemia): 851 nM
TGI (CCRF-CEM leukemia): 8640 nM
GI50 (HOP-92 NSCLC): 303 nM
TGI (HOP-92 NSCLC): 2360 nM
GI50 (OVCAR-4 ovarian): 745 nM
TGI (OVCAR-4 ovarian): 2550 nM
GI50 (MDA-MB-231 breast): 622 nM
TGI (MDA-MB-231 breast): 2400 nM
GI50 (UACC-62 melanoma): 378 nM
TGI (UACC-62 melanoma): 1730 nM
GI50 (M14 melanoma): 505 nM
TGI (M14 melanoma): 2080 nM
GI50 (KM12 colon): 517 nM
TGI (KM12 colon): 2580 nM
GI50 (OVCAR-8 ovarian): 436 nM
TGI (OVCAR-8 ovarian): 3250 nM
GI50 (RXF 393 renal): 349 nM
TGI (RXF 393 renal): 1670 nM
